Experimental findings from patent US20250382250A1, “STILBENE DERIVATIVE AS AHR AGONIST AND USE THEREOF” (NANJING GRITPHARMACO., LTD., priority 2022, published 2025) are described below.

Marks after values point to notes of the source that are not given here.

Data set [1] relates to atopic dermatitis. Put plainly: DNFB-induced atopic dermatitis mouse model (AD Score). The class given is in vivo, BALB/C mice. Set-up: scale not given here. To be noted: DNFB mice. How it is done:
56 clean-grade BALB/C mice aged 6-8 weeks were subjected to 5 days of adaptive feeding and then randomized into 7 groups of 8 mice each: • A. Blank control group • B. Modeling+solvent group • C. Modeling+blank matrix group • D. Modeling+positive drug mometasone furoate group • E. Modeling+1 wt % of benvitimod group • F. […] The animal experiments were conducted in accordance with the Experimental Animal Feeding, Management and Use Guidelines of China Pharmaceutical University and in compliance with animal study ethics and regulations. As shown in the above procedures, the solvent control or DNFB was given in the morning for modeling; from day 5, the test compound ointment was administered once every afternoon at 50 mg/dose evenly on the skin surface. The specific administration method is as shown above; Specific procedures: […] Severity of atopic dermatitis was scored using the AD Score criteria The severity of the appearance of dermatitis was evaluated based on 4 indicators: A. erythema/bleeding; B. dryness; C. effusion/crusting; D. edema.

Data set [2] in a line: Ointment diffusion test, ex vivo rabbit skin. The class given is in vitro ADME. The note with it: ointments: 2# 1.2 wt %, 6# 1.2 wt %, benvitimod 1.0 wt %, 32° C. How it is done:
(§1) Test compounds: compound 2 #ointment, 1.2 wt %; compound 6 #ointment, 1.2 wt %; benvitimod ointment, 1.0 wt %;
• (1) Preparation of ex vivo rabbit skin • (2) Preparation of receiving liquid: 100 mL of polyethylene glycol 400 solution was brought to a final volume of 250 mL with normal saline. The mixture was mixed well and stored at 4° C. Before each permeation in the receiving compartment, the system was preheated to 32° C. • (3) In vitro transdermal test: A drug transdermal diffusion apparatus was used to fix the processed rabbit skin between the supply and receiving compartments, with the stratum corneum facing the supply compartment. A constant temperature water bath circulation at 32° C. was maintained. The system was equilibrated for 30 min. Upon each replacement of the receiving liquid, the air at the lower layer was exhausted, and the liquid droplets on the skin surface were removed with paper. 0.5 g of the ointment was evenly smeared in the supply compartment. The system was stirred with a magnetic stirring at a rotation speed of 600 r/min. At 0.5, 1, 2, 3, 4, 5, 7, 9, 12, and 24 h, 1 mL of sample liquid was taken out from the receiving compartment and transferred into a liquid phase vial, and simultaneously, an equal amount of fresh receiving liquid at the same temperature was added. The liquid phase detection was conducted to calculate the drug permeation rate.

Data set [3] deals with IL4. Put plainly: Regulatory effect on cytokine secretion in PHA-stimulated PBMCs: IL4. The class given is cell-based. The note with it: for IL4: PBMCs, 15 μg/mL PHA, 24 h (PHA group 9.42). How it is done:
(§2) • (1) Cells: […]; • (2) Cell plating and treatment: After the PBMCs were taken out from the liquid nitrogen tank and thawed, 80 μL of culture medium was added to a 96-well plate, and the cells were added at 200,000 cells/well. The culture media containing 2 μM or 0.2 μM compound 2 #, compound 6 #, or reference 1 # were added to the 96-well plate at 80 μL, at a final drug concentration of 1 μM or 0.1 μM per well. The plate was let stand for 1 h for pretreatment. After the pretreatment, the drug-containing medium was discarded, and 1 μM or 0.1 μM solution containing 15 μg/mL PHA (phytohemaggluyinin) was added at 80 μL/well. After 24 h of stimulation, the content of cytokines in the culture medium was detected. • Blank control group: The cells were treated with a normal culture medium with no drugs; • PHA group: A culture medium containing 15 μg/mL PHA but no compounds of the present disclosure was added at 80 μL/well.

The subject of data set [4] is TNFa. Put plainly: Regulatory effect on cytokine secretion in PHA-stimulated PBMCs: TNFa. The class given is cell-based. The note with it: for TNFa: PBMCs, 15 μg/mL PHA, 24 h (PHA group 3649.21). How it is done:
as §2

Data set [5] in a line: Drug permeation rate test, in vitro diffusion through semipermeable membrane. The class given is in vitro ADME. To be noted: ointments: 2# 1.2 wt %, 6# 1.2 wt %, benvitimod 1.0 wt %, 32° C. As for the experimental part: as §1
[drawing 90] • (1) Preparation of semipermeable membrane: The semipermeable membrane, which had been prepared in advance, was taken out from the refrigerator; • (2) Preparation of receiving liquid: 100 mL of polyethylene glycol 400 solution was brought to a final volume of 250 mL with normal saline. The mixture was mixed well and stored at 4° C. Before each permeation in the receiving compartment, the system was preheated to 32° C.; • (3) In vitro diffusion test: A drug transdermal diffusion apparatus was used to fix the processed semipermeable membrane between the supply and receiving compartments. A constant temperature water bath circulation at 32° C. was maintained. The system was equilibrated for 30 min. Upon each replacement of the receiving liquid, the air at the lower layer was exhausted. About 0.5 g of the ointment was evenly smeared in the supply compartment. The system was stirred with a magnetic stirring at a rotation speed of 600 r/min. At 0.5, 1, 2, 4, 6, and 24 h, 1 mL of sample liquid was taken out from the receiving compartment, and simultaneously, an equal amount of fresh receiving liquid at the same temperature was added;
The sampling time points were 0.5, 1, 2, 4, 6, and 24 h, and 1 mL of sample was directly transferred into a liquid phase vial. Simultaneously, an equal amount of fresh receiving liquid at the same temperature was added. The liquid phase detection was conducted to calculate the drug permeation rate.

Data set [6] concerns the target T1, AhR (Homo sapiens, UniProt P35869).
T1 construct: expressed in transfected cells; host or cells: HepG2
T1 sequence (P35869 11-848): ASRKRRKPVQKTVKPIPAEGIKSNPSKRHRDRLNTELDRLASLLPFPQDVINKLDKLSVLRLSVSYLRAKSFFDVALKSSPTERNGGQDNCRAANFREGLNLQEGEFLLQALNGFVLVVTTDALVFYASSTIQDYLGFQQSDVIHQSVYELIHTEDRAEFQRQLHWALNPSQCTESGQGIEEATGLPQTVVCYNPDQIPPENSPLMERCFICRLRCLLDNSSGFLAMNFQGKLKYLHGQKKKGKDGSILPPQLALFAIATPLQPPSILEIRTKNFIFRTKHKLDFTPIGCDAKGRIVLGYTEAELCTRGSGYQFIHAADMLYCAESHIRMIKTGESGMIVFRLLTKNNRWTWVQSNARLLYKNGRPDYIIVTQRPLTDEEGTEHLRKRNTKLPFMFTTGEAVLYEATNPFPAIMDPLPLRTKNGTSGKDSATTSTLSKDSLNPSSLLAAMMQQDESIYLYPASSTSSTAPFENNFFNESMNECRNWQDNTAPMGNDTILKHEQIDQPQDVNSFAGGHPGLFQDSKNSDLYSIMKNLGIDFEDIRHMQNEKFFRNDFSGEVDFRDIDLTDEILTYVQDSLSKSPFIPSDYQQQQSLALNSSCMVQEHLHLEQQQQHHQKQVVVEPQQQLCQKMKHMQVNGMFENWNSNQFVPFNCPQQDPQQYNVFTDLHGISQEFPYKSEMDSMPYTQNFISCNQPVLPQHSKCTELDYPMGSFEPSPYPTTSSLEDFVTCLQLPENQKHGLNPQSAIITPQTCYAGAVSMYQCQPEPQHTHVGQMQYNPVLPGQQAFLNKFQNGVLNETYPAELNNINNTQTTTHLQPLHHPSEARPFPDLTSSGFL
Briefly: AhR agonism luciferase reporter gene assay in transfected HepG2 cells. The class given is cell-based. To be noted: 16 h, ratio of treatment group to blank. As for the experimental part:
When the cell confluence reached 80%, the culture medium was replaced with a fresh one, and the transfection working solution was added for transfection overnight. The formula of the working solution is as follows: 1 mL of Opti-MEM+7.5 μg of pCMV-AHR+7.5 μg of pTK-3×DRE-Luc+30 μL of lipo6000. • (2) Cell plating: The transfected cells were digested, prepared into a cell suspension at a concentration of 3×10^5 cells/mL, and then plated on a 96-well plate at 100 µL/well for adherent culture overnight. • (3) Formulation
The prepared drug-containing culture media and a blank culture medium were added to the 96-well plate described above at 100 μL/well.

In the case of `Oc1cc(/C=C/c2ccc(F)cc2)cc(O)c1C1CCCC1` [Compound 2, (E)-2-cyclopentyl-5-(4-fluorostyryl)-1,3-benzenediol], the “Back AD score” value in data set [1] (day 0, before ointment treatment (from day 5)) is recorded as 0.00 ± 0.00; in data set [1] (day 4, before ointment treatment (from day 5)), 3.19 ± 0.75; in data set [1] (day 6, ointment 50 mg once daily from day 5 (1.2 wt % 2#/6#, 1 wt % benvitimod)), 5.63 ± 1.96; in data set [1] (day 8, ointment 50 mg once daily from day 5 (1.2 wt % 2#/6#, 1 wt % benvitimod)), 6.13 ± 1.96**^aab; in data set [1] (day 10, ointment 50 mg once daily from day 5 (1.2 wt % 2#/6#, 1 wt % benvitimod)), 5.31 ± 1.87**^aab. Also, the “24-hour drug permeation rate (rank order)” value in data set [2] and in data set [5] was “benvitimod >2 #>6 #” each time. The IL4 in data set [3] (0.1 μM) was 5.19 pg/mL; in data set [3] (1 μM) it was 4.30 pg/mL. Besides, in data set [3] (1 μM), the “inhibitory effect on IL4 relative to reference 1# (benvitimod)” value is 2 folds. The figures for the TNFa in data set [4] (0.1 μM) and in data set [4] (1 μM) were 1353.72 pg/mL and 941.41 pg/mL, respectively. In addition, the “inhibitory effect on TNFa relative to reference 1# (benvitimod)” value in data set [4] (1 μM) is reported as 2 folds. Further, the “AhR receptor agonistic fold” value in data set [6] (drug concentration 0.1 μM) is reported as 6.1 ± 0.6 fold; in data set [6] (drug concentration 1 μM) it was 37.9 ± 6.9 fold.
